The source of these data is ChEMBL document CHEMBL1201862, “PubChem BioAssay data set” (2004).

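Step 1: Grow cells in 96-well plates. Step 2: Expose to compound for 48 hours at 5 concentrations. Step 3: Interpolate endpoints linearly; if unreached, use highest concentration. GI50 = concentration required for 50% inhibition of growth.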 Activity calls are given as the source filed them. Rule as the data show it: active = GI50 up to about 1.1 µM and inactive = higher. Bounds are passed on as bounds.

Common to all, as to assay: inhibition of tumour cell growth, NCI panel, 48 h
For assay [1], the system named is ACHN.
Assay [2] relates to PC-3.
Assay [3] relates to HL-60.
The test system of assay [4] is MOLT-4.
Assay [5] deals with NCI-H226.
Assay [6] concerns SNB-19.
The subject of assay [7] is RXF 393.
Assay [8] deals with OVCAR-3.
For assay [9], the system named is SN12C.
Assay [10] deals with SF-295.
Assay [11] deals with NCI-H460.
Assay [12] relates to Malme-3M.
In assay [13] the test system is OVCAR-5.
The test system of assay [14] is DU-145.
Assay [15] concerns HCT-116.
Assay [16] relates to UACC-257.
The subject of assay [17] is EKVX.
In assay [18] the test system is HCC 2998.

`CC(C)(C)c1ccc2c(c1)C(=O)c1ccccc1C2=O`: the GI50 was 37.9 µM (inactive) in [1]; 37.7 µM (inactive) in assay [2]; 64.6 µM (inactive) in assay [3]; 24.6 µM (inactive) in [4]; 35.5 µM (inactive) in [5]; > 100 µM (inactive) in assay [6]. In addition, the GI50 was 26.1 µM (inactive) in [7]; > 100 µM (inactive) in assay [8]; 85.3 µM (inactive) in [9]; 56.4 µM (inactive) in assay [10]; 31.3 µM (inactive) in [11]; > 100 µM (inactive) in assay [12]. In addition, the GI50 in [13] is 82.6 µM (inactive); in assay [14], > 100 µM (inactive); in assay [15], 76 µM (inactive); in assay [16] it was 40.2 µM (inactive); in assay [17], 19 µM (inactive).

Turning to `O=C1/C(=C/c2ccc(OC(=O)c3ccccc3)cc2)CCC/C1=C\c1ccc(OC(=O)c2ccccc2)cc1`, the GI50 in assay [1], in [2], in [3], in assay [4], in assay [6] and in assay [8] was > 100 µM (inactive) throughout. The GI50 in assay [18], in [9], in assay [10], in assay [11], in [13] and in assay [14] was > 100 µM (inactive) throughout. Besides, the GI50 in assay [15], in [16] and in assay [17] was > 100 µM (inactive) each time.

Take `COc1cccc2c1CCc1cc3c(N)nc(N)nc3nc1-2`: the GI50 in assay [1] was 5.75 µM (inactive); in assay [2], 5.38 µM (inactive); in assay [4], 0.653 µM (active); in assay [5], 12.6 µM (inactive); in assay [6], 5.45 µM (inactive); in [7], 3.02 µM (inactive). For the same compound, the GI50 is 7.26 µM (inactive) in assay [8]; 2.29 µM (inactive) in assay [18]; 6.43 µM (inactive) in [9]; 4.42 µM (inactive) in [10]; 4.83 µM (inactive) in assay [11]; 5.14 µM (inactive) in assay [12]. Further, the GI50 in assay [13] was 6.92 µM (inactive); in [14], 5.16 µM (inactive); in assay [15], 2.55 µM (inactive); in assay [16], 5.73 µM (inactive); in assay [17], 2.12 µM (inactive).

Turning to `Cc1cc(NC[C@H](O)[C@H](O)[C@H](O)CO)c(Sc2cc(=O)[nH]c(=O)[nH]2)cc1C`, the GI50 in [1], in assay [2], in [4], in [5], in [6] and in [7] was > 62.5 µM (inactive) throughout. Moreover, the GI50 in [8], in assay [18], in [9], in assay [10], in assay [11] and in assay [12] was > 62.5 µM (inactive) in each case. Also, the GI50 in assay [13], in assay [14], in [15], in assay [16] and in assay [17] was > 62.5 µM (inactive) each time.

As for `O=C(CC(Cl)(Cl)C(Cl)(Cl)Cl)c1ccccc1`, the GI50 in assay [1] is 2.27 µM (inactive); in [2], 14.4 µM (inactive); in [3], 8.99 µM (inactive); in assay [4], 3.17 µM (inactive); in assay [5], 3.63 µM (inactive); in assay [6], 17.4 µM (inactive). Further, the GI50 in assay [7] is 1.96 µM (inactive); in assay [8], 1.85 µM (inactive); in assay [9], 0.59 µM (active); in assay [10], 1.78 µM (inactive); in assay [11] it was 12 µM (inactive); in assay [12], 2.71 µM (inactive). Also, the GI50 in assay [13] was 11.2 µM (inactive); in [14], 3.01 µM (inactive); in assay [15], 2.1 µM (inactive); in assay [16], 1.78 µM (inactive).

For the compound `C#CCn1c2c(c3ccccc3c1=O)C(=O)c1ccccc1-2`, the GI50 in assay [2] was 11.7 µM (inactive); in assay [3], 2.94 µM (inactive); in assay [4], 2.83 µM (inactive); in assay [5], 16.7 µM (inactive); in assay [8], 14.7 µM (inactive); in [9], 11.4 µM (inactive). Besides, the GI50 in assay [10] was 20.2 µM (inactive); in [12], 25.5 µM (inactive); in assay [13] it was 24.7 µM (inactive); in [14] it was 11.7 µM (inactive); in assay [15] it was 19.6 µM (inactive); in assay [16] it was 32.3 µM (inactive). Further, the GI50 in assay [17] is 16.3 µM (inactive).

Consider `Cc1cc(NS(=O)(=O)c2ccc(Nc3c4ccccc4nc4c(C(=O)NC(CO)(CO)CO)cccc34)cc2)no1`, for which the GI50 was 32.7 µM (inactive) in assay [1]; 31.3 µM (inactive) in [2]; 34.5 µM (inactive) in assay [3]; 8.75 µM (inactive) in [4]; 34.4 µM (inactive) in assay [6]; 39.3 µM (inactive) in assay [8]. Moreover, the GI50 is 16.9 µM (inactive) in [18]; 23.1 µM (inactive) in [9]; 41 µM (inactive) in [10]; > 10 µM (inactive) in assay [11]; 29.4 µM (inactive) in assay [12]; 62.8 µM (inactive) in assay [13]. The GI50 in assay [14] is 48.1 µM (inactive); in assay [16], 72.1 µM (inactive); in assay [17] it was 73.6 µM (inactive).

`S=C1CC(c2ccccc2)Sc2cc(Cl)ccc2N1` (configuration not stated): the GI50 in assay [1] was 9.46 µM (inactive); in assay [2] it was 1.87 µM (inactive); in assay [3] it was 0.726 µM (active); in [4] it was 1.51 µM (inactive); in assay [5], 14.2 µM (inactive); in assay [6], 10.8 µM (inactive). In addition, the GI50 in assay [7] was 6.55 µM (inactive); in assay [8], 2.49 µM (inactive); in [9], 8.77 µM (inactive); in assay [10], 3.45 µM (inactive); in assay [11], 6.59 µM (inactive); in [12], 6.28 µM (inactive). For the same compound, the GI50 in assay [13] is > 100 µM (inactive); in [14], > 100 µM (inactive); in assay [15], 3.03 µM (inactive); in assay [16] it was 6.04 µM (inactive); in assay [17], 20.7 µM (inactive).

As for `CC(C)(C)c1cc(/C=C(\C#N)C(=O)NCCO)cc(C(C)(C)C)c1O`, the GI50 in assay [1] is 27.2 µM (inactive); in assay [2], 18.2 µM (inactive); in assay [3], 15.7 µM (inactive); in assay [4], 18.7 µM (inactive); in [5] it was 19.5 µM (inactive); in [6] it was 32.1 µM (inactive). In addition, the GI50 in [7] is 27.4 µM (inactive); in assay [8] it was 14.6 µM (inactive); in [9] it was 19 µM (inactive); in assay [10] it was 16.9 µM (inactive); in [11] it was 20.7 µM (inactive); in [12], 17.3 µM (inactive). The GI50 in assay [13] was 24.1 µM (inactive); in [14], 34 µM (inactive); in [15] it was 16.9 µM (inactive); in [16], 17.5 µM (inactive); in [17] it was 24.5 µM (inactive).

In the case of `Cc1coc2c1CC1OC1(C)CCC1OC1(C)C2` (configuration not stated), the GI50 in assay [1], in assay [2], in [3], in assay [4], in [5] and in [6] was > 100 µM (inactive) in each case. For the same compound, the GI50 in assay [8], in [18], in assay [9], in assay [10], in assay [11] and in assay [13] was > 100 µM (inactive) in each case. In addition, the GI50 in assay [14], in assay [15], in assay [16] and in [17] was > 100 µM (inactive) each time.

As for `CC(CC(=O)O)C(C(=O)O)C(=O)O` (configuration not stated), the GI50 in assay [1], in [2], in assay [3], in [4], in assay [5] and in [6] was > 100 µM (inactive) in each case. Also, the GI50 in [7], in assay [8], in [9], in assay [10], in assay [11] and in [12] was > 100 µM (inactive) throughout. Also, the GI50 in [13], in [14], in assay [15], in assay [16] and in [17] was > 100 µM (inactive) each time.

Consider `CCOc1cc(NC(C)=O)ccc1C(=O)NN1C(=O)/C(=C/c2ccc(Cl)cc2)N=C1c1ccccc1`, for which the GI50 in [1] was 51.1 µM (inactive); in assay [2], 43.5 µM (inactive); in [3] it was 34.1 µM (inactive); in assay [4], 17.7 µM (inactive); in assay [5], 42.8 µM (inactive); in assay [6], > 100 µM (inactive). The GI50 in assay [7] was 33 µM (inactive); in assay [8] it was 33 µM (inactive); in assay [9], 70.6 µM (inactive); in assay [10], 38.5 µM (inactive); in assay [13], > 100 µM (inactive); in assay [14], 68.5 µM (inactive). For the same compound, the results for the GI50 in [15], in assay [16] and in assay [17] were 46.1 µM (inactive), 43.9 µM (inactive) and 26 µM (inactive), respectively.
